# In patent US20230084927A1, “GLUCOSE UPTAKE INHIBITORS AND USES THEREOF” (METABOMED LTD., priority 2019, published 2023):
# Where two headings read alike, the source gives them in different places.
# How the values were obtained:
# SDH-WT cells = assay: Cellular / differential toxicity assay (CellTiter-Glo, 3 days); assay type: cell-based, murine; settings: toxicity, SDH-WT cells, 3 days, CellTiter-Glo, read-out: EC50 (uM) SDH-WT
# Protocol: (§1) Identification of compounds that target specifically SDH-deficient cells was done by screening a library of small-molecule by using a differential toxicity screen with SDHB-proficient vs. SDHB-deficient cells (the […] cells were described in Cardaci 2015).
# (§2) Cells Used for the Differential Assays: SDH-WT; SDH-KO-HRAS
# (§3) Cell Culture Conditions: • Medium: DMEM-F12 medium+1 mM Glutamine+3% FBS • Plates: 96 well plate—Black, clear flat bottom • Incubation time: 3 days • Compound concentration: 10 point dilution starting from 10 uM to 0.0065 uM or a lower range when needed. • Viability assay at the end of incubation: Celltiter-Glo (CTG) from Promega.
# (§4) Protocol: • Day 1: Plate cells in 96 well plate together with the appropriate concentration of compound.
# (§5) Incubate for 3 days at 37° C. in 5% CO2 tissue culture incubator. • Day 4: Check viability of cells by adding CTG reagent and read luminescence in plate reader
# (§6) SDH-WT and SDH-KO cells were grown in DMEM F12 supplemented with 1 mM Glutamine+3% FBS were treated with different concentrations of the indicated compounds in FIG. 11. Cell viability was determined 72 hours later by CellTiter Glue reagent (Promega), the luminescence was measured with ClarioStar reader (BMG) and the EC50s were calculated by Prism.
# as §6, with “compounds.” for “compounds in FIG. 11.”
# (§7) The cells were grown in DMEM F12 supplemented with 1 mM Glutamine+3% FBS were treated with different concentrations of the indicated compounds. Cell viability was determined 72 hours later by CellTiter Glue reagent (Promega), the luminescence was measured with ClarioStar reader (BMG) and the EC50s were calculated by Prism. Murine SDHB-WT/KO, HRAS transformed isogenic pair (FIG. 12A); UOK269, Human Tumor-derived SDHB-deficient RCC in their WT counterpart with re-expression of SDHB (FIG. 12B); and ACHN, RCC cells, and their SDHB-KO (SDHB CRISPRed out) isogenic cells (FIG. 12C).
# [1] = test system: SDH-KO-HRAS cells (SDHB-deficient); assay: as above; assay type: cell-based, murine; settings: toxicity, SDH-KO cells, 3 days, CellTiter-Glo, read-out: EC50 (uM) SDH-KO-HTAS-C17
# Protocol: as §1, §2, §3, §4, §5, §6
# as §6, with “compounds.” for “compounds in FIG. 11.”
# as §7
SMILES,"EC50 (SDH-WT cells; Mus musculus, 72 h)","EC50 ([1]; Mus musculus, 72 h)",EC50 (SDH-WT cells),EC50 [1]
COc1ccc(CCNc2ncnc3c2sc2ncccc23)cc1F [Compound 110],> 10 µM,1 to 3 µM,–,–
CC1(C)CCc2cc3c(nc2C1)sc1c(CCC2(c4ccccc4)CCCC2)cccc13 [Compound 293],> 10 µM,> 10 µM,–,–
Cc1nc(NCC2CCCO2)c2sc3nc4c(cc3c2n1)COC(C)(C)C4 (stereo not shown) [Compound 231],> 10 µM,> 10 µM,–,–
CN1C(=O)CCC1n1cnc2ccc(CCNc3ncnc4c3sc3nc5c(cc34)COC(C)(C)C5)cc21 (stereo not shown) [Compound 304],3 to 10 µM,< 1 µM,–,–
CC(C)(C)Nc1ncnc2c1sc1nc3c(cc12)COC(C)(C)C3 [Compound 259],> 10 µM,> 10 µM,–,–
C=CCNc1ncnc2c1sc1nc3c(cc12)COC(C)(C)C3 [Compound 296],–,–,> 10 µM,3 to 10 µM
CCN(CC)CCNc1ncnc2c1sc1nc3c(cc12)COC(C)(C)C3 [Compound 218],> 10 µM,> 10 µM,–,–
CC1(C)Cc2nc3sc4c(NCCc5ccc6[nH]cnc6c5)ncnc4c3c(-c3cncs3)c2CO1 [Compound 318],< 1 µM,< 1 µM,–,–
CCN1CCN(c2ncnc3c2sc2nc4c(cc23)COC(C)(C)C4)CC1 [Compound 280],> 10 µM,> 10 µM,–,–
"COCCOCCOCCNCc1c2c(nc3sc4c(NCCc5ccc6[nH]cnc6c5)ncnc4c13)CC(C)(C)OC2 [Compound 320, N-(2-(1H-Benzo[d]imidazol-5-yl)ethyl)-11-(5,8,11-trioxa-2-azadodecyl)-8,8-dimethyl-7,10-dihydro-8H-pyrano[3″,4″:5′,6′]pyrido[3′,2′:4,5]thieno[3,2-d]pyrimidin-4-amine]",3 to 10 µM,3 to 10 µM,–,–
CC1(C)Cc2nc3sc4c(NCCC5CCCCO5)ncnc4c3cc2CO1 (stereo not shown) [Compound 112],> 10 µM,3 to 10 µM,–,–
CC1(C)Cc2nc3sc4c(N5CCN(CCO)CC5)ncnc4c3cc2CO1 [Compound 288],> 10 µM,> 10 µM,–,–
COc1ccc(CCOc2ncnc3c2sc2nc4c(cc23)COC(C)(C)C4)cc1F [Compound 153],> 10 µM,> 10 µM,–,–
CCCCCNc1ncnc2c1sc1nc3c(cc12)COC(C)(C)C3 [Compound 243],3 to 10 µM,3 to 10 µM,–,–
CC1(C)Cc2nc3sc4c(NCCO)ncnc4c3cc2CO1 [Compound 257],> 10 µM,> 10 µM,–,–
CC(=O)OCc1nc2cc(CCNc3ncnc4c3sc3nc5c(cc34)COC(C)(C)C5)ccc2[nH]1 [Compound 176],3 to 10 µM,< 1 µM,–,–
CCC(CO)Nc1ncnc2c1sc1nc3c(cc12)COC(C)(C)C3 (stereo not shown) [Compound 291],> 10 µM,> 10 µM,–,–
CC1(C)Cc2nc3sc4c(NCc5cccnc5)ncnc4c3cc2CO1 [Compound 277],> 10 µM,> 10 µM,–,–
COc1ccccc1CCNc1ncnc2c1sc1nc3c(cc12)COC(C)(C)C3 [Compound 128],3 to 10 µM,3 to 10 µM,–,–
CN(C)CCNc1ncnc2c1sc1nc3c(cc12)COC(C)(C)C3 [Compound 227],> 10 µM,> 10 µM,–,–
Cc1nc(NC(C)CCc2ccccc2)c2sc3nc4c(cc3c2n1)COC(C)(C)C4 (stereo not shown) [Compound 265],–,–,3 to 10 µM,> 10 µM
CC1(C)Cc2nc3sc4c(NCC5CCCO5)ncnc4c3cc2CO1 (stereo not shown) [Compound 247],> 10 µM,3 to 10 µM,–,–
CN(C)C(=O)c1ccc(CCNc2ncnc3c2sc2nc4c(cc23)COC(C)(C)C4)cc1 [Compound 150],> 10 µM,1 to 3 µM,–,–
CC1(C)Cc2nc3sc4c(NCCc5cccc(C(=O)O)c5)ncnc4c3cc2CO1 [Compound 113],< 1 µM,3 to 10 µM,–,–
CC1(C)Cc2nc3sc4c(NCCc5ccccc5)ncnc4c3cc2CO1 [Compound 260],> 10 µM,> 10 µM,–,–
CC1(C)Cc2nc3sc4c(N5CCOCC5)ncnc4c3cc2CO1 [Compound 137],> 10 µM,> 10 µM,–,–
CCCN(CCC)c1nc(C)nc2c1sc1nc3c(cc12)COC(C)(C)C3 [Compound 248],> 10 µM,> 10 µM,–,–

SMILES,"EC50 (SDH-WT cells; Mus musculus, 72 h)","EC50 ([1]; Mus musculus, 72 h)",EC50 (SDH-WT cells),EC50 [1]
Cc1nc(NCCCN(C)C)c2sc3nc4c(cc3c2n1)COC(C)(C)C4 [Compound 226],> 10 µM,> 10 µM,–,–
CC(C)c1nc2cc(CCNc3ncnc4c3sc3nc5c(cc34)COC(C)(C)C5)ccc2[nH]1 [Compound 188],1 to 3 µM,3 to 10 µM,–,–
Cc1nc(NCCN(C)C)c2sc3nc4c(cc3c2n1)COC(C)(C)C4 [Compound 225],> 10 µM,> 10 µM,–,–
CC1(C)Cc2nc3sc4c(NCCc5ccc(N6CCCC6=O)cc5)ncnc4c3cc2CO1 [Compound 156],> 10 µM,1 to 3 µM,–,–
CCCCCCCNc1nc(C)nc2c1sc1nc3c(cc12)COC(C)(C)C3 [Compound 241],> 10 µM,> 10 µM,–,–
CC(=O)OC(C)C(=O)Nc1ccc(CCNc2ncnc3c2sc2nc4c(cc23)COC(C)(C)C4)cc1N (stereo not shown) [Compound 186],3 to 10 µM,1 to 3 µM,–,–
CC1(C)Cc2nc3sc4c(NCCc5ccccn5)ncnc4c3cc2CO1 [Compound 133],> 10 µM,3 to 10 µM,–,–
Cc1nc(N2CCCC2)c2sc3nc4c(cc3c2n1)COC(C)(C)C4 [Compound 268],> 10 µM,> 10 µM,–,–
CCN(CC)CCCNc1ncnc2c1sc1nc3c(cc12)COC(C)(C)C3 [Compound 287],> 10 µM,> 10 µM,–,–
"CCOC(=O)c1c2c(nc3sc4c(NCCc5ccc6[nH]cnc6c5)ncnc4c13)CC(C)(C)OC2 [Compound 170, Ethyl 4-((2-(1H-benzo[d]imidazol-5-yl)ethyl)amino)-8,8-dimethyl-8,10-dihydro-7H-pyrano[3″,4″:5′,6′]pyrido[3′,2′:4,5]thieno[3,2-d]pyrimidine-11-carboxylate]",< 1 µM,< 1 µM,–,–
CCCCCCCNc1ncnc2c1sc1nc3c(cc12)COC(C)(C)C3 [Compound 255],> 10 µM,> 10 µM,–,–
COc1nc2cc(CCNc3ncnc4c3sc3nc5c(cc34)COC(C)(C)C5)ccc2[nH]1 [Compound 195],< 1 µM,< 1 µM,–,–
CC(C)c1nc(NCCc2ccc3[nH]cnc3c2)c2sc3nc4c(cc3c2n1)COC(C)(C)C4 [Compound 311],> 10 µM,1 to 3 µM,–,–
COc1ccc(CCN(C)c2ncnc3c2sc2nc4c(cc23)COC(C)(C)C4)cc1F [Compound 100],> 10 µM,3 to 10 µM,–,–
CC1(C)Cc2nc3sc4c(NCCc5ccc6[nH]cnc6c5)ncnc4c3c(C(=O)OCCCCCCCCCCCCCCCC(=O)O)c2CO1 [Compound 211],3 to 10 µM,3 to 10 µM,–,–
CC1(C)Cc2nc3sc4c(NCCc5ccc6[nH]ccc6c5)ncnc4c3cc2CO1 [Compound 116],3 to 10 µM,1 to 3 µM,–,–
Cc1nc(NCC(C)C)c2sc3nc4c(cc3c2n1)COC(C)(C)C4 [Compound 220],> 10 µM,> 10 µM,–,–
CCCCCNc1nc(C)nc2c1sc1nc3c(cc12)COC(C)(C)C3 [Compound 262],> 10 µM,> 10 µM,–,–
Cc1nc(NCCCO)c2sc3nc4c(cc3c2n1)COC(C)(C)C4 [Compound 222],> 10 µM,> 10 µM,–,–
CC1(C)Cc2nc3sc4c(NCCCO)ncnc4c3cc2CO1 [Compound 238],> 10 µM,> 10 µM,–,–
CC1(C)Cc2nc3sc4c(N(CCO)Cc5ccccc5)ncnc4c3cc2CO1 [Compound 271],3 to 10 µM,> 10 µM,–,–
Cc1nc(N2CCCCC2)c2sc3nc4c(cc3c2n1)COC(C)(C)C4 [Compound 233],> 10 µM,> 10 µM,–,–
CC1(C)Cc2nc3sc4c(NCCc5ccc(O)c(F)c5)ncnc4c3cc2CO1 [Compound 140],3 to 10 µM,1 to 3 µM,–,–
CNc1ccc(CCNc2ncnc3c2sc2nc4c(cc23)COC(C)(C)C4)cc1[N+](=O)[O-] [Compound 180],3 to 10 µM,< 1 µM,–,–
COCCOCCOCCOCCOCCOC(=O)c1c2c(nc3sc4c(NCCc5ccc6[nH]cnc6c5)ncnc4c13)CC(C)(C)OC2 [Compound 163],> 10 µM,1 to 3 µM,–,–
CC(=O)CNc1ccc(CCNc2ncnc3c2sc2nc4c(cc23)COC(C)(C)C4)cc1F [Compound 191],3 to 10 µM,1 to 3 µM,–,–
